Columns and labels:
Assay in all cases: Cell panel screen (CellTiter-Glo)
Format in all cases: cell-based, human
[1] = system: A498; conditions: Homo sapiens, A498, 72 h, read-out: Percent Inhibition
Method in brief: (§1)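 Here, cancer cells cultured in medium with 10% FBS are treated for 72 h with each compound at 20 μM final. Viability is measured by ATP-dependent luminescence, and growth inhibition is calculated as a percentage against vehicle-only wells minus cell-free background.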

[2] = system: A704; conditions: Homo sapiens, A704, 72 h, read-out: Percent Inhibition
Method in brief: as §1

[3] = system: BT-474; conditions: Homo sapiens, BT-474, 72 h, read-out: Percent Inhibition
Method in brief: as §1

[4] = system: BT-549; conditions: Homo sapiens, BT-549, 72 h, read-out: Percent Inhibition
Method in brief: as §1

[5] = system: C3A; conditions: Homo sapiens, C3A, 72 h, read-out: Percent Inhibition
Method in brief: as §1

[6] = system: CCF-STTG1; conditions: Homo sapiens, CCF-STTG1, 72 h, read-out: Percent Inhibition
Method in brief: as §1

[7] = system: CW-2; conditions: Homo sapiens, CW-2, 72 h, read-out: Percent Inhibition
Method in brief: as §1

[8] = system: ChaGo-K-1; conditions: Homo sapiens, ChaGo-K-1, 72 h, read-out: Percent Inhibition
Method in brief: as §1

[9] = system: Colo 205; conditions: Homo sapiens, COLO 205, 72 h, read-out: Percent Inhibition
Method in brief: as §1

[10] = system: HCC1395; conditions: Homo sapiens, HCC1395, 72 h, read-out: Percent Inhibition
Method in brief: as §1

[11] = system: HCC1569; conditions: Homo sapiens, HCC1569, 72 h, read-out: Percent Inhibition
Method in brief: as §1

[12] = system: HCC1599; conditions: Homo sapiens, HCC1599, 72 h, read-out: Percent Inhibition
Method in brief: as §1

[13] = system: HCC1937; conditions: Homo sapiens, HCC1937, 72 h, read-out: Percent Inhibition
Method in brief: as §1

[14] = system: HEC-1-A; conditions: Homo sapiens, HEC-1-A, 72 h, read-out: Percent Inhibition
Method in brief: as §1

[15] = system: HGC-27; conditions: Homo sapiens, HGC-27, 72 h, read-out: Percent Inhibition
Method in brief: as §1

[16] = system: HT-1197; conditions: Homo sapiens, HT1197, 72 h, read-out: Percent Inhibition
Method in brief: as §1

[17] = system: M059J; conditions: Homo sapiens, M059J, 72 h, read-out: Percent Inhibition
Method in brief: as §1

[18] = system: MSTO-211-H; conditions: Homo sapiens, MSTO-211H, 72 h, read-out: Percent Inhibition
Method in brief: as §1

[19] = system: NCI-H1623; conditions: Homo sapiens, NCI-H1623, 72 h, read-out: Percent Inhibition
Method in brief: as §1

[20] = system: NCI-H1694; conditions: Homo sapiens, NCI-H1694, 72 h, read-out: Percent Inhibition
Method in brief: as §1

[21] = system: NCI-H1770; conditions: Homo sapiens, NCI-H1770, 72 h, read-out: Percent Inhibition
Method in brief: as §1

[22] = system: NCI-H2347; conditions: Homo sapiens, NCI-H2347, 72 h, read-out: Percent Inhibition
Method in brief: as §1

[23] = system: NCI-H2405; conditions: Homo sapiens, NCI-H2405, 72 h, read-out: Percent Inhibition
Method in brief: as §1

[24] = system: NCI-H28; conditions: Homo sapiens, NCI-H28, 72 h, read-out: Percent Inhibition
Method in brief: as §1

[25] = system: NCI-H524; conditions: Homo sapiens, NCI-H524, 72 h, read-out: Percent Inhibition
Method in brief: as §1

[26] = system: Panc 03.27; conditions: Homo sapiens, PANC-03-27, 72 h, read-out: Percent Inhibition
Method in brief: as §1

[27] = system: T98G; conditions: Homo sapiens, T98G, 72 h, read-out: Percent Inhibition
Method in brief: as §1

[28] = system: ZR-75-30; conditions: Homo sapiens, ZR-75-30, 72 h, read-out: Percent Inhibition
Method in brief: as §1

## CC(C)=CCC/C(C)=C/Cc1c(O)c(CC=C(C)C)c2c(c1O)C(=O)C1=C[C@@H]3C[C@H]4C(C)(C)O[C@@](CC=C(C)C)(C3=O)[C@@]14O2 [GB32]
[1]
  inhibition at 20 µM: 98%
[2]
  inhibition at 20 µM: 99%
[3]
  inhibition at 20 µM: 99%
[4]
  inhibition at 20 µM: 99%
[5]
  inhibition at 20 µM: 99%
[6]
  inhibition at 20 µM: 99%
[7]
  inhibition at 20 µM: 99%
[8]
  inhibition at 20 µM: 99%
[9]
  inhibition at 20 µM: 99%
[10]
  inhibition at 20 µM: 99%
[11]
  inhibition at 20 µM: 99%
[12]
  inhibition at 20 µM: 100%
[13]
  inhibition at 20 µM: 99%
[14]
  inhibition at 20 µM: 99%
[15]
  inhibition at 20 µM: 99%
[16]
  inhibition at 20 µM: 99%
[17]
  inhibition at 20 µM: 99%
[18]
  inhibition at 20 µM: 99%
[19]
  inhibition at 20 µM: 99%
[20]
  inhibition at 20 µM: 100%
[21]
  inhibition at 20 µM: 99%
[22]
  inhibition at 20 µM: 98%
[23]
  inhibition at 20 µM: 99%
[24]
  inhibition at 20 µM: 99%
[25]
  inhibition at 20 µM: 99%
[26]
  inhibition at 20 µM: 99%
[27]
  inhibition at 20 µM: 99%
[28]
  inhibition at 20 µM: 99%

— paper PMC4450297, “Screening Active Compounds from Garcinia Species Native to China Reveals Novel Compounds Targeting the STAT/JAK Signaling Pathway” (BioMed Research International, 2015)
